US20240058240A1, “COMPOUNDS AS SELF-TANNING SUBSTANCES AND TANNING COMPOSITIONS THEREOF” (CHEMCOM S.A., priority 2020, published 2024)

Tests used:
Format in all cases: cell-based
[1] = system: human skin explants; experiment: Cellular viability of human skin living explants (Masson's trichrome, Goldner variant)
Procedure: (§1) Human skin explants of an average diameter of 12 mm (±1 mm) were prepared on an abdoplasty coming from a person (reference: P2237AB47—phototype II) or person (reference P2196-AB61, phototype III). The explants were kept in survival in BEM culture medium (BIO-EC's Explants Medium) at 37° C. in a humid, 5%-CO2 atmosphere.
(§2) The Ambermax was diluted in 0.1% ethanol at the following concentrations: 0.3 μM, 1 μM, 3 μM, 10 μM, 15 μM, 30 μM and 100 μM. The diluted solutions were stored at 4° C. during the study.
(§3) The explants were treated for 10 days with Ambermax (see products application below) or with no treatment.
(§4) On day 0 (DO), day 3 (D3), day 5 (D5), day 7 (D7) and day 10 (D10), the tested products (compounds for use in the invention) were 1) applied topically using a small spatula based on 2 μl per explant (2 mg per cm^2) at the indicated concentrations, 2) applied intradermatically by injections into the dermis using a syringe with 20 μL of product for each explant or 3) applied systemically by dilutions of the compound of invention in the culture media at the indicated concentration. […] The culture medium was half renewed (1 ml/well) on day 3, day 5, day 7 and day 10.
(§5) On day 0 (D0), D2, D3, D6, and D8, the tested products (compounds for use in the invention) were applied topically using a small spatula on the basis of 2 μl per explant (2 mg per cm^2). […] The culture medium was half renewed (1 ml/well) on D2, D3, D6 and D8.
(§6) After fixation for 24 hours in buffered formalin solution, the samples were dehydrated and impregnated in paraffin using a Leica PEARL dehydration automat. The samples were then paraffin-embedded using a Leica EG 1160 embedding station. 5-μm-thick sections of paraffin-embedded formol fixed sections were realized using a Leica RM 2125 Minot-type microtome, and the sections were then mounted on Superfrost® Plus glass slides. Microscopical observations were realized using a Leica DMLB, a BX43 or BX63 Olympus microscope. Pictures were digitized with an Olympus DP72 or DP74 camera and the Cell^D or cellSens data storing software.
The cell viability of epidermal and papillary dermal structures was observed on formalin-fixed paraffin-embedded (FFPE) skin sections after Masson's trichrome staining, Goldner variant. The cell viability was assessed by microscopical observation. Concerned batches: T0, (TUV, P1→P10) on D5 or D6 and D10.
(§7) The effects ex vivo was shown by treating human biopsies for 10 days (human living explants: 12 mm+/−1, donor, skin type III) with a systemic application, intradermic injections or a topical application of compounds according to embodiments of the invention (Ambermax). Concentrations of 1, 5 and 10 μM of this compound were used for systemic application and intradermic injections on the human explants. For topical application, biopsies were treated with 10, 30, and 100 μM of Ambermax. As control, non-treated explants or/and explants exposed to chronic UVA-irradiations were used as described in the experimental procedures.

[2] = system: human skin explants; experiment: Melanogenesis in human skin living explants (Masson's Fontana staining, image analysis); details: systemic treatment, 3 and 5 μM, after 5 days, compared with chronic UVA
[3] = system: human skin explants; experiment: as above; details: for melanogenesis: compared with chronic UVA; for increase of melanin content in the basal layer of the epidermis (image analysis, stained surface): D6, explants phototype II, p<0.01
Procedure: as §1, §2, §3, §4, §5, §6
Melanin was visualized after silver impregnation according to Masson's Fontana staining method on formalin-fixed paraffin-embedded (FFPE) skin sections. The staining was assessed by microscopical observation and image analysis of specific batches. Concerned batches: T0, (TUV, P1→P10) on D5 or D6 and D10.
The images analyses were performed on all the images of each batch, according to the following method using Cell^D or cellSens software:
For each batch of explants, the percentage of the region of interest covered by the staining (stained surface percentage) is determined by image analysis according to the previously described process.
Stained surfaces comparisons: the stained surface percentage (Surf %) for each treatment is compared to the untreated condition=>P vs T. The same comparisons are made for the induced batches with or without treatment=>T vs TUV.
as §7

Ambermax [Compound 16]
explant toxicity ([1]; 0.3-100 μM, 3 different ways of application): doesn't induce explant toxicity
explant viability ([1]; D5 and D10, 3 concentrations, 3 methods of application (topical, systemic, intradermal), skin type III): no significant alterations of explant viability
explant alterations ([1]; application of 100 μM, D10): very slight alterations
alteration of the papillary dermis ([1]; topical administration, 100 μM): no modification of the papillary dermis
explant viability in the epidermis (macroscopic evaluation) ([1]; topical administration, 100 μM): very slight decrease in the viability
melanogenesis [2]: rise of melanogenesis equivalent to the one obtained with a chronic UVA irradiation
enhancement of melanogenesis (microscopical observation and semi-quantification of melanin staining) ([3]; FFPE skin sections, without UVs exposure): very effective to enhance melanogenesis without UVs exposure
most effective concentration (melanogenesis) ([3]; intradermal injection for 10 days): 1 µM
melanogenesis ([3]; intradermal injection, 1 μM and 10 μM, after 5 days): increase of melanogenesis slightly weaker than that achieved with chronic UVA
melanin content present in the basal layer in skin explants ([3]; second batch of explants, phototype II, topical): induced an increase of the melanin content present in the basal layer
most efficient concentration to stimulate melanin synthesis ([3]; systemic treatment, day 10): 1 µM
increase of melanin content in the basal layer of the epidermis (image analysis, stained surface) ([3]; topical 10 μM): 152%
increase of melanin content in the basal layer of the epidermis (image analysis, stained surface) ([3]; topical 15 μM): 160%
melanogenesis ([3]; topical treatment, 10 μM, 30 μM and 100 μM, 10 days): moderate melanogenesis induction, slightly lower than that obtained with of chronic UVA
melanogenesis ([3]; topical treatment, 10 μM, 5 days): increase in melanogenesis comparable to that obtained with chronic UVA irradiation
